# In patent publication US5608093A, “Corticosteroid 17-alkyl carbonate 21-[0]-carboxylic and carbonic esters, and pharmaceuticals containing these compounds” (Hoechst Aktiengesellschaft, priority 1993, dated 1997):
# Columns and labels:
# [1] = tested on: carrageenan paw edema; assay: Systemic antiinflammatory effect following subcutaneous administration: carrageenan paw edema in rats; type: in vivo, rat (male Sprague-Dawley); conditions: for Increase in volume (ml) (x ± s), paw: 6 h after carrageenan
# Method: 2 a) Examining for systemic antiinflammatory effect in the "antiinflammatory effect following subcutaneous administration: carrageenan paw edema in rats" test.
# The carrageenan paw edema test in rats in accordance with the method described by Winter et al. Proc. Soc. Exp. Biol. (New York) Volume 111, p. 544 (1962) was chosen as the test for the acute systemic antiinflammatory effect. Male Sprague-Dawley rats of about 120 g in weight were given the substances to be tested s.c. (0.2 ml/100 g) dissolved in sesame oil. 30 min later, 0.1 ml of a 0.5% carrageenan solution was injected into the left hind paw. 6 h later, the degree of swelling was measured volumetrically. Controls were only given sesame oil.
# The paw volumes are given in ml, x±s. In this case too, the antiinflammatory effect is characterized by giving the dose in mg/kg required for approximately 50% inhibition.
# [2] = Split (ratio) of local to systemic antiinflammatory effect / therapeutic advantage; type: in vivo, rat
# Method: (§1) 1. Local antiinflammatory effect in rat croton oil ear edema following epicutaneous application
# (§2) We used the rat ear method of Tonelli et al.: male Wistar rats from our own colony and weighing about 50 g were treated epicutaneously on the right ear with the irritant or with irritant containing test substance. The left ear remained untreated. TPA (12-O-tetradecanoylphorbol 13-acetate, SIGMA P 8139) dissolved in acetone, 0.4 mg/ml, (of which 20 μl each on the inside and outside) was used for eliciting the inflammation. The corticoids under examination were dissolved in this solution in the given final concentrations. Controls only received the TPA/solvent mixture. The animals were sacrificed using CO2 4 h after the epicutaneous treatment. Disks measuring 8 mm in diameter were punched out of the right (treated) and the left (untreated) ears and weighed immediately. This difference, as the parameter for the degree of inflammation, was set at 100 in the controls (mg, x±s). The antiinflammatory effect is characterized by giving the dose in mg/ml which is required for approximately 50% inhibition: […]
# The carrageenan paw edema test in rats in accordance with the method described by Winter et al. Proc. Soc. […] 6 h later, the degree of swelling was measured volumetrically. […]
# [3] = tested on: gluconeogenesis in rats (liver); assay: Systemic effect: gluconeogenesis in adrenalectomized rats; conditions: for Glycogen + glucose mg/100 g of liver / Liver glycogen: 6 h; for Effect on new formation of glucose and glycogen (in words): p 0.05, t test
# Method: A sensitive method for detecting systemic effects on carbohydrate metabolism is to examine the gluconeogenic effect of corticosteroids in the adrenalectomized rat. Three days prior to the experiment, groups of in each case 6 rats are adrenalectomized under pentobarbital anesthesia and then provided with 0.9% sodium chloride solution as drinking fluid. Two days later, i.e. 24 hours before initiating the experiment, the feed is removed in order to reduce the glycogen stores in the liver.
# On the day of the experiment, the preparations under examination are administered subcutaneously, dissolved in sesame oil (2 ml/kg). Six hours later, the animals are decapitated, and in each case the liver is removed and 1 g thereof is taken up in 5 ml of 0.6 molar perchloric acid. After homogenization, the free glucose is measured in the supernatant from the centrifugation, while the centrifugation sediment (centrifugate; glycogen) is cleaved enzymically with amyloglucosidase, after which the glucose content is also measured in this fraction (Hexokinase method, Boehringer Mannheim).
# [4] = tested on: croton oil (TPA) ear edema, rat ear; assay: Local antiinflammatory effect in rat croton oil ear edema following epicutaneous application; type: in vivo, rat (male Wistar); conditions: for Inhibition in % / x ± s (mg), ear disk weight difference (right treated minus left untreated): epicutaneous, 4 h; for Local antiinflammatory effect (in words): general statement; for Relative local antiinflammatory potency (Result): rat ear edema, in words
# Method: as §1, §2
# [5] = 3.0 mg/kg s.c., * p<0.05, Dunnett's test
# [6] = 3 mg/kg s.c., * significant, t test
SMILES,"Increase in volume (ml) (x ± s), paw ([1]; 0.3 mg/kg s.c.)","Increase in volume (ml) (x ± s), paw [1, 5]",Split / ratio of local to systemic antiinflammatory effect (in words) [2],Glycogen + glucose mg/100 g of liver ([3]; 0.3 mg/kg s.c.),Liver glycogen ([3]; 0.3 mg/kg s.c.),"Glycogen + glucose mg/100 g of liver [3, 6]","Liver glycogen [3, 6]",Effect on new formation of glucose and glycogen (in words) ([3]; 3 mg/kg s.c.),Inhibition in % ([4]; 0.03 mg/ml),"x ± s (mg), ear disk weight difference (right treated minus left untreated) ([4]; 0.03 mg/ml)",Inhibition in % ([4]; 0.1 mg/ml),"x ± s (mg), ear disk weight difference (right treated minus left untreated) ([4]; 0.1 mg/ml)",Inhibition in % ([4]; 0.3 mg/ml),"x ± s (mg), ear disk weight difference (right treated minus left untreated) ([4]; 0.3 mg/ml)",Local antiinflammatory effect (in words) [4],Relative local antiinflammatory potency (Result) [4],"Systemic effect in paw edema compared with the test compounds (in words) ([1]; significant only after 3 mg/kg, s.c.)",Inhibition in % ([4]; 1 mg/ml),"x ± s (mg), ear disk weight difference (right treated minus left untreated) ([4]; 1 mg/ml)"
"CCOC(=O)O[C@]1(C(=O)COC(=O)Cc2ccccc2)CC[C@H]2[C@@H]3CCC4=CC(=O)C=C[C@]4(C)[C@H]3[C@@H](O)C[C@@]21C [Compound I, Prednisolone 17-ethyl carbonate 21-phenylacetate]",0.34 ± 0.12 mL,0.19 ± 0.9 mL,strikingly favorable split to weak systemic activity,11.3 ± 2.0 mg/100 g of liver,0.5 ± 0.7,25.9 ± 13 mg/100 g of liver,2.4 ± 2.4,do not have any significant effect at 3 mg/kg,33%,10 ± 3.0 mg,67%,5 ± 1.1 mg,80%,3 ± 2.3 mg,strong local antiinflammatory effect,approximately three times more powerful than prednicarbate,–,–,–
"CCOC(=O)O[C@]1(C(=O)COC(=O)Cc2ccccc2)[C@@H](C)C[C@H]2[C@@H]3CCC4=CC(=O)C=C[C@]4(C)[C@@]3(F)[C@@H](O)C[C@@]21C [Compound II, Betamethasone 17-ethyl carbonate 21-phenyl acetate]",0.33 ± 0.12 mL,0.19 ± 0.9 mL,strikingly favorable split to weak systemic activity,23.6 ± 6.8 mg/100 g of liver,2.8 ± 1.4,37.9 ± 30 mg/100 g of liver,7.4 ± 10,do not have any significant effect at 3 mg/kg,–,–,66%,5.1 ± 3.3 mg,70%,4.5 ± 3.1 mg,strong local antiinflammatory effect,corresponding effect to that of compound I,–,–,–
"CCOC(=O)O[C@]1(C(=O)COC(=O)CC)CC[C@H]2[C@@H]3CCC4=CC(=O)C=C[C@]4(C)[C@H]3[C@@H](O)C[C@@]21C [Prednicarbate, prednisolone 17-ethyl carbonate 21-propionate, reference compound]",–,–,–,–,–,–,–,–,–,–,–,–,–,–,–,–,corresponds to the behavior of prednicarbate,80%,3 ± 1.7 mg
